The test system of one data set is hMAO-B. Set-up: method as in PMID 25812965, PMID 27744252, PMID 10213168. To be noted: printed in Figure 2, quantity not named; cited from earlier work.
The test system of the next data set is BChE. Set-up: method as in PMID 25812965, PMID 27744252, PMID 10213168. To be noted: Figure 2; cited from earlier work.
The test system of the next data set is AChE. Set-up: method as in PMID 25812965, PMID 27744252, PMID 10213168. To be noted: Figure 2; cited from earlier work.
In data set [1] the test system is A549 cells. Description: MTT assay, A549. In kind it is cell-based, human. To be noted: for IC50: Homo sapiens. The method, then:
Human lung carcinoma cell line A549 and CCD-18Co colon fibroblasts were purchased from the American Type Culture Collection (ATCC, Rockville, MD, USA). The A549 cells were cultured in a complete RPMI-1640 medium (Sigma-Aldrich, St. Louis, MO, USA), and CCD-18Co cells were cultured in an MEM medium (PAN-Biotech GmbH, Aidenbach, Germany). The media were supplemented with 10% fetal bovine serum (FBS; Biosera, Nuaille, France) and antibiotics (1% Antibiotic-Antimycotic 100× and 50 × 10^−3 g l^−1 gentamicin; Biosera) at 37 °C, 95% humidity, and 5% CO2.
Prior to the selected treatments, cells were seeded on 12-well μ-Chamber slides (ibidi GmbH, Martinsried, Germany) and 6 and/or 96-well plates (TPP, Trasadingen, Switzerland) and left to settle for 24 h. The biscoumarin derivative solutions (at concentrations ranging from 10–100 µM) were then added to cells for 24 or 48 h, and analysis was subsequently performed.
MTT assays were performed in order to evaluate changes in the metabolic activity of cells that had occurred as a consequence of treatment with the biscoumarin derivatives. A549 cells (15 × 10^3 cells/cm^2) and CCD-18Co ([…]) were seeded in 96-well microplates. The cells were treated for 24 and 48 h with different concentrations (10, 25, 35, 50, 65, 75, and 100 µM) of the derivatives. After the treatment, the MTT (3-(4,5-dimethylthiazol-2-yl)-2,5-diphenyltertrazolium bromide) solution in PBS (5 mg mL^−1) was added to each well. […]. The absorbance of formazan (λ = 584 nm) was measured using a BMG FLUOstar Optima spectrometer (BMG Labtech GmbH, Offenburg, Germany). The results were evaluated as percentages of the absorbance of the untreated control. Results are presented as the average percentage of cells from three independent experiments. IC50 values for the derivatives were extrapolated from a sigmoidal fit (dose–response curve) to the metabolic activity data using OriginPro 8.5.0 SR1 (OriginLab Corp., Northampton, MA, USA).
(Tetrazolium assays rely on reduction of a dye to a coloured formazan, in cell work by metabolically active cells.)

A short description of a further data set: in vitro. The procedure:
The parallel artificial membrane permeability assay (PAMPA) is used as a non-cell-based in vitro assay to predict BBB penetration and is carried out in a coated 96-well membrane filter. In our assays, the filter membrane of the donor plate was coated with PBL (Polar Brain Lipid, Avanti, Denver, CO, USA) in dodecane (4 µL of 20 mg mL^−1 PBL in dodecane), and the acceptor well was filled with 300 µL of phosphate buffered saline (PBS) (pH 7.4; VA). The tested compounds were first dissolved in DMSO, and the resulting mixture was diluted with PBS (pH 7.4) to reach the final concentration (40–100 µM) in the donor well. […] Three hundred microliters of the donor solution (VD) were added to the donor wells, and the donor filter plate was carefully placed onto the acceptor plate to ensure that the coated membrane was “in contact” with both the donor solution and the acceptor buffer. The test compound diffused from the donor well through the polar brain lipid membrane (area = 0.28 cm^2) to the acceptor well. The concentration of the tested compound in both the donor and acceptor wells was assessed after 3, 4, 5, and 6 h of incubation, respectively, in quadruplicate using a UV plate reader Synergy HT (Biotek, Winooski, VT, USA) at the maximum absorption wavelength of each compound. Additionally, solutions at the theoretical equilibrium of the given compound (i.e., the theoretical concentration if the donor and acceptor compartment were simply combined) were also prepared.

The test system of data set [2] is A549 cells. Kind of data set: Mitotic activity (Ki67 index) by immunolabelling and confocal microscopy. Format: cell-based, human. To be noted: 24 h, vs control. The method, then:
The studied biscoumarin derivatives were added to cells seeded on 12-well μ-Chamber slides for 24 h. After cultivation with the derivatives, the samples (both the control without the derivatives and experimental groups) were washed with a 0.1 M PBS solution buffer to remove all non-cell-absorbed derivative residues and fixed with 4% paraformaldehyde for 20 min at RT. Alternatively, cells were incubated with Mitotracker Red (0.5 µM; Thermo Fisher Scientific, Waltham, MA, USA) for 30 min at 37 °C, washed with 0.1 M PBS, and fixed with 4% paraformaldehyde for 20 min at RT. For the quantification of proliferative activity and programmed cell death, samples were incubated overnight at 4 °C with the mouse anti-Ki67 antibody (NCL-L-Ki67-MM1, 1:100, Leica Biosystems, Wetzlar, Germany) and rabbit anti-cleaved PARP (cat. no. 94885, 1:100, Cell Signaling, Danvers, MA, USA) diluted in 0.1 M PBS containing 1% normal donkey serum (Jackson Immunoresearch, Cambridgeshire, Great Britain) and 0.3% Triton-X 100. […]
All samples were evaluated using a Leica TCS SP5X confocal system (Leica Microsystems, Mannheim, Germany). The biscoumarin derivatives were visualized in cells using a 405 nm laser, and the fluorescence was captured in the range of 420–480 nm with identical exposure parameters for all samples. […] Microphotographs were taken with a 40× objective lens (NA = 0.75; voxel size 223 × 223 nm) and a 63× oil lens (NA = 1.4; voxel size 171 × 171 nm); the images were captured and analyzed using LAS AF software (Leica Microsystems, Wetzlar, Germany).
The proliferative activity of cells incubated with the studied derivatives was expressed as a Ki67 index. In all samples (n = 3 samples per each experimental group), the number of Ki67^+ nuclei was calculated in groups of 100 randomly selected cells. […]

In a further data set the target is T1, human recombinant AChE (Homo sapiens, UniProt P22303).
T1 construct: purchased Sigma-Aldrich, Prague, Czech Republic
T1 sequence (P22303 32-614): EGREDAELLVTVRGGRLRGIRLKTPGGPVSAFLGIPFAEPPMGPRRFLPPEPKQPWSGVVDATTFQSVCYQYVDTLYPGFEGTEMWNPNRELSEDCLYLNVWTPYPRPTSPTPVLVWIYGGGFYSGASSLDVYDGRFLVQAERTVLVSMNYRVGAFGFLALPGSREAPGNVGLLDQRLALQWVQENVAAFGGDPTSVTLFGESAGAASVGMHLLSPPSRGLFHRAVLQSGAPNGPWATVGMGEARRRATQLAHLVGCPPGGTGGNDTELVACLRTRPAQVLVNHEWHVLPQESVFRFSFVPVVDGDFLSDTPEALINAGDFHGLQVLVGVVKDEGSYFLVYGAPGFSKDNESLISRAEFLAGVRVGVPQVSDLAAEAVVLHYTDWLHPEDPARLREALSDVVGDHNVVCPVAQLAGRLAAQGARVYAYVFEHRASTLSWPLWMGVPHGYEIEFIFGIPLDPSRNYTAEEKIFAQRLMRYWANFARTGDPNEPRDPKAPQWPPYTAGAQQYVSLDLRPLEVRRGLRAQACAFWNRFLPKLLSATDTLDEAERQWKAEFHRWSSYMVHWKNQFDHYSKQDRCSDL
Kind of data set: biochemical. In kind it is biochemical. To be noted: mean of at least three experiments. The method, then:
(§1) Human recombinant AChE (EC 3.1.1.7), 5,5′-dithiobis(2-nitrobenzoic acid) (Ellman′s reagent, DTNB), phosphate buffer (PB, 0.1 M, pH 7.4), and acetylthiocholine (ATC) and butyrylthiocholine (BTC), were purchased from Sigma-Aldrich, Prague, Czech Republic. Human plasma was used as a source of BChE and was prepared from heparinized human blood. The blood was centrifuged for 20 min (4 °C, 2300× g) on a Hettich Universal 320R centrifuge. The plasma was separated and stored at […]. Polystyrene Nunc 96-well microplates with a flat bottom shape (ThermoFisher Scientific, Waltham, MA, USA) were used for measuring purposes.
(§2) All of the assays were carried out in a 0.1 M phosphate buffer, pH 7.4. The assay medium (100 µL) consisted of 40 µL of 0.1 M phosphate buffer (pH 7.4), 20 µL of 0.01 M DTNB, 10 µL of the enzyme, and 20 µL of 0.01 M substrate ATC/BTC iodide solution).
(§3) The tested compounds were preincubated for 5 min prior to use. The reaction was initiated immediately upon addition of 20 µL of the substrate. […] Each concentration was assayed in triplicate. Software GraphPad Prism 5 (San Diego, CA, USA) was used in the evaluation of the statistical data.

Another data set concerns the target T2, hBChE (human plasma) (Homo sapiens, UniProt P06276).
T2 construct: Human plasma was used as a source of BChE; from tissue; host or cells: human plasma from heparinized blood
Description: biochemical. In kind it is biochemical. To be noted: human plasma BChE, mean of at least three experiments. The method, then:
as §1, §2, §3

Another data set deals with hAChE. More on the design: method as in PMID 25812965, PMID 27744252, PMID 10213168. To be noted: Figure 2; cited from earlier work.
Another data set relates to rat brain AChE. More on the design: method as in PMID 10213168. To be noted: cited from earlier work.
Data set [3] relates to human umbilical vein endothelial cell (HUVEC) cell line. To be noted: ref 55 (Huang et al.); cited from earlier work.
Another data set concerns A549 cancer cell line. To be noted: ref 55 (Huang et al.); cited from earlier work.

Read-outs that look alike come from different tables or passages of the source. Some results are limits rather than exact numbers.

T2 sequence (P06276 29-602): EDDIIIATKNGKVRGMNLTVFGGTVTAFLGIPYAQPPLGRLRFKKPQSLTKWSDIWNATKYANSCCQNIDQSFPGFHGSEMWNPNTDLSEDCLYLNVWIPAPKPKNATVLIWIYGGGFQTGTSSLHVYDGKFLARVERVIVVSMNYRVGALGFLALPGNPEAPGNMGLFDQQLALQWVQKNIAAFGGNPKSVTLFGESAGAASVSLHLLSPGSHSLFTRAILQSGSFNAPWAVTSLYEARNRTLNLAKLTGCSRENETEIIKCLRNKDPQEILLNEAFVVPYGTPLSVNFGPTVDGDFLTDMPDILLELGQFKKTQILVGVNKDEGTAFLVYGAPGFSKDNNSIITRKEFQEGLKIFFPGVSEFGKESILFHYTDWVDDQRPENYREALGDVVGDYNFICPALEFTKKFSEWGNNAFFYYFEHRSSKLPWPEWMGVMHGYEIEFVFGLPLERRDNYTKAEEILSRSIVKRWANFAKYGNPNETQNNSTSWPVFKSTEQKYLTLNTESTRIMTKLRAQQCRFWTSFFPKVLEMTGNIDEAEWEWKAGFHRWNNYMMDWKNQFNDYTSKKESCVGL

Turning to `Cc1c(N=O)c(=O)oc2cc(CCCN3CCC(Cc4ccccc4)CC3)ccc12` [compound 7], the IC50 (usually the point on the concentration scale where inhibition reaches its midpoint) in the data set on hMAO-B was 5.9 µM; in the data set with BChE it was 0.98 µM; in the data set with AChE, 0.3 µM.
In the case of `COC(=O)Cc1cc(=O)oc2cc(OCCCN3CCN(CCNC(=O)Cc4cc(=O)oc5cc(O)ccc45)CC3)ccc12` [12a], the “Metabolic activity of A549 cells (in words)” value in the data set on A549 cells [1] (10 to 100 μM, 24 and 48 h) is “did not lose the ability to convert dye”. Moreover, the IC50 was above 100 µM in the data set on A549 cells [1] (A549, 24 h, read-out: IC50 A549 24 h); above 100 µM with A549 cells [1] (A549, read-out: IC50 A549 48 h, 48 h); above 500 µM at human recombinant AChE (read-out: IC50 ± S.E.M. hAChE); above 500 µM at hBChE (human plasma) (read-out: IC50 ± S.E.M. hBChE). The Papp – broadly, the rate of passage across a membrane or cell layer, normalised by area and donor concentration – in the data set “in vitro” (PAMPA, pH 7.4) is 1.53 ± 0.64 ×10⁻⁶ cm/s. For the same molecule, in the data set “in vitro” (classification from PAMPA-BBB Pe), the “CNS Predicted Availability” value is “CNS− (CNS−: low BBB permeation predicted with Pe (×10^−6 cm s^−1) < 2.0)”. Further, the “Number of proliferating cells (Ki67 index), in words” value with A549 cells [2] is recorded as “no significant changes”. For the same molecule, the “IC50 ± S.E.M. hAChE” value on human recombinant AChE is “did not show inhibitory activity”. Besides, the “IC50 ± S.E.M. hBChE” value on hBChE (human plasma) is on record as “did not show inhibitory activity”.
Consider `Cc1c(C)c2ccc(OCCN3CCN(CCNc4c5c(nc6ccccc46)CCCC5)CC3)cc2oc1=O` [compound 6], for which the IC50 with hAChE was 0.0161 µM.
On to `COc1cc2oc(=O)c(C)c(C)c2cc1OCCCN1CCN(c2ccccc2OC)CC1` [KA-672, ensaculin], for which the IC50 in the data set with rat brain AChE was 0.36 µM.
Turning to `N.N.[Cl][Pt][Cl]` [cisplatin], the IC50 in data set [3] is 9.68 µM; in the data set with A549 cancer cell line it was 13.5 µM.
In the case of `O=c1[nH]cc(F)c(=O)[nH]1` [5-fluorouracil], the values for the IC50 (in [3]; in the data set with A549 cancer cell line) were 25.1 µM and 36.3 µM, respectively.

The values are drawn from publication PMC8068036, “Synthesis of New Biscoumarin Derivatives, In Vitro Cholinesterase Inhibition, Molecular Modelling and Antiproliferative Effect in A549 Human Lung Carcinoma Cells” (International Journal of Molecular Sciences, 2021).
